Experimental data as given in US20250179061A1 (SIRONAX LTD., priority 2022, published 2025).
Read-outs that look alike come from different tables or passages of the source.

Test system: HT-29 cells
Assay: HT-29 necroptosis cell viability assay (TNF-α/SMAC mimetic/zVAD-FMK, CellTiter-Glo)
Assay type: cell-based
Conditions: Homo sapiens
In short: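 HT-29 cells (~5,000/well, overnight) in FBS-free McCoy's 5A with TNF-α 10 ng/ml, SMAC mimetic 6 μM and zVAD-FMK 10 μM plus 10-point 1:3 compound titration, 20 h at 37°C. ATP measured by CellTiter-Glo luminescence; IC50 as geometric mean of duplicates.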

[1] = HT-29, HT-29 necroptosis cell viability assay, class symbols for IC50, read-out: Activity
[2] = HT-29 cells stimulated with TNF-α (10 ng/ml), SMAC mimetic (6 μM) and zVAD-FMK (10 μM), 20 hours, CellTiter-Glo ATP luminescence, geometric mean IC50 from 10 points, read-out: Activity
[3] = HT-29, HT-29 cells, necroptosis induced by TNF-α/SMAC mimetic/zVAD-FMK, CellTiter-Glo, read-out: Activity (IC50 class)
[4] = HT-29, HT-29 necroptosis cell viability, IC50 class symbols, read-out: Activity

Row | SMILES | IC50 [1] [nM] | IC50 [4] [nM] | also measured
1 | Cc1cc(C(=O)O)nn1Cc1ccc(-n2ncn(Cc3c(F)cccc3F)c2=O)cc1F [Example 216, 1-(4-(4-(2,6-difluorobenzyl)-5-oxo-4,5-dihydro-1H-1,2,4-triazol-1-yl)-2-fluorobenzyl)-5-methyl-1H-pyrazole-3-carboxylic acid] | 1000 to 10000 |  | 
2 | COC(=O)c1cnc(Oc2ccc(-n3ncn(Cc4c(F)cccc4F)c3=O)cc2F)n1C [Example 173, methyl 2-(4-(4-(2,6-difluorobenzyl)-5-oxo-4,5-dihydro-1H-1,2,4-triazol-1-yl)-2-fluorophenoxy)-1-methyl-1H-imidazole-5-carboxylate] | 100 to 1000 |  | 
3 | Cc1nc(N2C[C@H](C#N)[C@@H]2C)sc1Oc1ccc(-n2ncn(Cc3c(F)cccc3F)c2=O)cc1 [Example 44, (2S,3S)-1-(5-(4-(4-(2,6-difluorobenzyl)-5-oxo-4,5-dihydro-1H-1,2,4-triazol-1-yl)phenoxy)-4-methylthiazol-2-yl)-2-methylazetidine-3-carbonitrile] |  |  | IC50 [2]: < 100 nM
4 | Cc1c(CC#N)noc1Oc1ccc(-n2ncn(Cc3c(F)cccc3F)c2=O)cc1F [Example 650, 2-(5-(4-(4-(2,6-difluorobenzyl)-5-oxo-4,5-dihydro-1H-1,2,4-triazol-1-yl)-2-fluorophenoxy)-4-methylisoxazol-3-yl)acetonitrile] |  |  | IC50 [3]: < 100 nM
5 | Nc1ncc(Oc2ccc(-n3ncn(Cc4c(F)cccc4F)c3=O)cc2)s1 [Example 90, 2-(4-((2-aminothiazol-5-yl)oxy)phenyl)-4-(2,6-difluorobenzyl)-2,4-dihydro-3H-1,2,4-triazol-3-one] |  |  | IC50 [2]: 100 to 1000 nM
6 | O=c1n(Cc2c(F)cccc2F)cnn1-c1ccc(Oc2cc(N3CCOCC3)ncc2F)c(F)c1 [Example 283, 4-(2,6-difluorobenzyl)-2-(3-fluoro-4-((5-fluoro-2-morpholinopyridin-4-yl)oxy)phenyl)-2,4-dihydro-3H-1,2,4-triazol-3-one] |  | < 100 | 
7 | CC1(C#N)CN(c2nccc(Oc3ccc(-n4ncn(Cc5c(F)cccc5F)c4=O)cc3F)c2Cl)C1 [Example 238, 1-(3-chloro-4-(4-(4-(2,6-difluorobenzyl)-5-oxo-4,5-dihydro-1H-1,2,4-triazol-1-yl)-2-fluorophenoxy)pyridin-2-yl)-3-methylazetidine-3-carbonitrile] |  | < 100 | 
8 | C[C@H]1COCCN1c1cc(Oc2ccc(-n3ncn(Cc4c(F)cccc4F)c3=O)cc2)ccn1 [Example 244, (S)-4-(2,6-difluorobenzyl)-2-(4-((2-(3-methylmorpholino)pyridin-4-yl)oxy)phenyl)-2,4-dihydro-3H-1,2,4-triazol-3-one] |  | 100 to 1000 | 
9 | Cc1nc(-c2ccnn2C)sc1Oc1ccc(-n2ncn(Cc3c(F)cccc3F)c2=O)cc1 [Example 544, 4-(2,6-difluorobenzyl)-2-(4-((4-methyl-2-(1-methyl-1H-pyrazol-5-yl)thiazol-5-yl)oxy)phenyl)-2,4-dihydro-3H-1,2,4-triazol-3-one] | < 100 |  | 
10 | Cc1cnc(N2CC(C)(C#N)C2)cc1Oc1ccc(-n2ncn(Cc3c(F)cccc3F)c2=O)cc1F [Example 294, 1-(4-(4-(4-(2,6-difluorobenzyl)-5-oxo-4,5-dihydro-1H-1,2,4-triazol-1-yl)-2-fluorophenoxy)-5-methylpyridin-2-yl)-3-methylazetidine-3-carbonitrile] |  | < 100 | 
11 | CC(C)(C)OC(=O)Nc1cc(Oc2ccc(-n3ncn(Cc4ccccc4)c3=O)cc2)ccn1 [Example 311, tert-butyl (4-(4-(4-benzyl-5-oxo-4,5-dihydro-1H-1,2,4-triazol-1-yl)phenoxy)pyridin-2-yl)carbamate] |  | 100 to 1000 | 
12 | Cn1ncc([N+](=O)[O-])c1Oc1ccc(-n2ncn(Cc3c(F)cccc3F)c2=O)cc1 [Example 95, 4-(2,6-difluorobenzyl)-2-(4-((1-methyl-4-nitro-1H-pyrazol-5-yl)oxy)phenyl)-2,4-dihydro-3H-1,2,4-triazol-3-one] |  |  | IC50 [2]: 100 to 1000 nM
13 | Cc1nc(CN)sc1Oc1ccc(-n2ncn(Cc3c(F)cccc3F)c2=O)cc1 [Example 160, 2-(4-((2-(aminomethyl)-4-methylthiazol-5-yl)oxy)phenyl)-4-(2,6-difluorobenzyl)-2,4-dihydro-3H-1,2,4-triazol-3-one] | 100 to 1000 |  | 
14 | COC(=O)c1nc(C)c(Oc2ccc(-n3ncn(Cc4cc(Cl)ccn4)c3=O)cc2F)s1 [Example 10, methyl 5-(4-(4-((4-chloropyridin-2-yl)methyl)-5-oxo-4,5-dihydro-1H-1,2,4-triazol-1-yl)-2-fluorophenoxy)-4-methylthiazole-2-carboxylate] |  |  | IC50 [2]: 1000 to 10000 nM
15 | Cc1nc(C#N)sc1Oc1ncc(-n2ncn(Cc3c(F)cccc3F)c2=O)cc1Cl [Example 653, 5-[[3-chloro-5-[4-[(2,6-difluorophenyl)methyl]-5-oxo-1,2,4-triazol-1-yl]-2-pyridyl]oxy]-4-methyl-thiazole-2-carbonitrile] |  |  | IC50 [3]: 100 to 1000 nM
16 | C[C@H]1[C@H](N)CN1c1cc(Oc2ccc(-n3ncn(Cc4c(F)cccc4F)c3=O)cc2F)c(F)cn1 [Example 377, 2-(4-((2-((2S,3R)-3-amino-2-methylazetidin-1-yl)-5-fluoropyridin-4-yl)oxy)-3-fluorophenyl)-4-(2,6-difluorobenzyl)-2,4-dihydro-3H-1,2,4-triazol-3-one] |  | < 100 | 
17 | Cc1cc(C(N)=O)c(C)n1Cc1ccc(-n2ncn(Cc3c(F)cccc3F)c2=O)cc1F [Example 219, 1-(4-(4-(2,6-difluorobenzyl)-5-oxo-4,5-dihydro-1H-1,2,4-triazol-1-yl)-2-fluorobenzyl)-2,5-dimethyl-1H-pyrrole-3-carboxamide] | < 100 |  | 
18 | Cc1nc(C(=O)N2CCOCC2)sc1Oc1ccc(-n2nc3n(c2=O)[C@H](c2ccccc2)CC3)cc1F (single isomer, unassigned) [Example 601] | < 100 |  | 
19 | CC1(N)CN(c2nccc(Oc3ccc(-n4ncn(Cc5c(F)cccc5F)c4=O)cc3F)c2Cl)C1 [Example 420, 2-(4-((2-(3-amino-3-methylazetidin-1-yl)-3-chloropyridin-4-yl)oxy)-3-fluorophenyl)-4-(2,6-difluorobenzyl)-2,4-dihydro-3H-1,2,4-triazol-3-one] |  | < 100 | 
20 | O=c1n(Cc2c(F)cccc2F)cnn1-c1ccc(Oc2ccnc(NCC3CCC3)c2)cc1 [Example 342, 2-(4-((2-((cyclobutylmethyl)amino)pyridin-4-yl)oxy)phenyl)-4-(2,6-difluorobenzyl)-2,4-dihydro-3H-1,2,4-triazol-3-one] |  | 100 to 1000 | 
21 | Cc1nc(C#N)sc1Oc1ccc(-n2ncn(Cc3ncccc3Cl)c2=O)cc1F [Example 576, 5-(4-(4-((3-chloropyridin-2-yl)methyl)-5-oxo-4,5-dihydro-1H-1,2,4-triazol-1-yl)-2-fluorophenoxy)-4-methylthiazole-2-carbonitrile] | < 100 |  | 
22 | O=c1n(Cc2c(F)cccc2F)cnn1-c1ccc(Oc2cc(N3CC4(CNC4)C3)ncc2F)c(F)c1 [Example 418, 4-(2,6-difluorobenzyl)-2-(3-fluoro-4-((5-fluoro-2-(2,6-diazaspiro[3.3]heptan-2-yl)pyridin-4-yl)oxy)phenyl)-2,4-dihydro-3H-1,2,4-triazol-3-one] |  | < 100 | 
23 | Cc1nc(C2(O)CC2)sc1Oc1ccc(-n2ncn(Cc3c(F)cccc3F)c2=O)cc1 [Example 580, 4-(2,6-difluorobenzyl)-2-(4-((2-(1-hydroxycyclopropyl)-4-methylthiazol-5-yl)oxy)phenyl)-2,4-dihydro-3H-1,2,4-triazol-3-one] | < 100 |  | 
24 | O=c1n(Cc2c(F)cccc2F)cnn1-c1ccc(Oc2scnc2C(F)F)c(F)c1 [Example 147, 4-(2,6-difluorobenzyl)-2-(4-((4-(difluoromethyl)thiazol-5-yl)oxy)-3-fluorophenyl)-2,4-dihydro-3H-1,2,4-triazol-3-one] | < 100 |  | 
25 | Cc1cnc(N2CC(C)(C#N)C2)cc1Oc1ccc(-n2ncn(Cc3c(F)cccc3F)c2=O)cc1Cl [Example 251, 1-(4-(2-chloro-4-(4-(2,6-difluorobenzyl)-5-oxo-4,5-dihydro-1H-1,2,4-triazol-1-yl)phenoxy)-5-methylpyridin-2-yl)-3-methylazetidine-3-carbonitrile] |  | < 100 | 
26 | CNC(=O)c1nc(C)c(Oc2ccc(-n3ncn(Cc4cnccc4Cl)c3=O)cc2F)s1 [Example 599, 5-(4-(4-((4-chloropyridin-3-yl)methyl)-5-oxo-4,5-dihydro-1H-1,2,4-triazol-1-yl)-2-fluorophenoxy)-N,4-dimethylthiazole-2-carboxamide] | < 100 |  | 
27 | C[C@H]1CCCN1c1cc(Oc2ccc(-n3ncn(Cc4c(F)cccc4F)c3=O)cc2F)c(F)cn1 [Example 297, (S)-4-(2,6-difluorobenzyl)-2-(3-fluoro-4-((5-fluoro-2-(2-methylpyrrolidin-1-yl)pyridin-4-yl)oxy)phenyl)-2,4-dihydro-3H-1,2,4-triazol-3-one] |  | < 100 | 
28 | Cc1nc(C(N)=O)sc1Oc1ccc(-n2nc3n(c2=O)[C@H](c2ccccc2)CC3)cc1 (single isomer, unassigned) [Example 17] |  |  | IC50 [2]: < 100 nM
29 | O=c1n(Cc2c(F)cccc2F)cnn1-c1ccc(Oc2ccnc(NC3COC3)c2)cc1 [Example 343, 4-(2,6-difluorobenzyl)-2-(4-((2-(oxetan-3-ylamino)pyridin-4-yl)oxy)phenyl)-2,4-dihydro-3H-1,2,4-triazol-3-one] |  | 1000 to 10000 | 
30 | CC1(N)CN(c2nccc(Oc3ccc(-n4ncn(Cc5c(F)cccc5F)c4=O)cc3F)c2F)C1 [Example 416, 2-(4-((2-(3-amino-3-methylazetidin-1-yl)-3-fluoropyridin-4-yl)oxy)-3-fluorophenyl)-4-(2,6-difluorobenzyl)-2,4-dihydro-3H-1,2,4-triazol-3-one] |  | < 100 | 
